Measured values reported in PMC10999543, “Identification of kinase modulators as host-directed therapeutics against intracellular methicillin-resistant Staphylococcus aureus” (Frontiers in Cellular and Infection Microbiology, 2024).
Read-outs that look alike come from different tables or passages of the source.

Columns and labels:
[1] = test system: HeLa cells; assay: Compound screen by flow cytometry: HeLa cell count as surrogate readout of cell viability (z-scoreHeLa); type: cell-based, human; conditions: for cell count rep 1 / z-scoreHeLa rep 1: replicate 1; for cell count rep 2 / z-scoreHeLa rep 2: replicate 2; for cell count rep 3 / z-scoreHeLa rep 3: replicate 3; for z-scoreHeLa mean: mean of 3 replicates
How it was run: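 The viability surrogate was the count of fixed HeLa cells by flow cytometry, converted to z-scores against DMSO controls with values deviating two-fold excluded. Before counting, cells had been infected with MRSA for 1 h and cleared of extracellular bacteria with gentamicin. They were then exposed overnight to kinase inhibitors in triplicate.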

[2] = test system: intracellular MRSA; type: cell-based, Staphylococcus aureus; conditions: for %GFP+ rep 1 / z-scoreMRSA+ rep 1: replicate 1; for %GFP+ rep 2 / z-scoreMRSA+ rep 2: replicate 2; for %GFP+ rep 3 / z-scoreMRSA+ rep 3: replicate 3; for z-scoreMRSA+ mean: mean of 3 replicates
How it was run: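 HeLa cells were infected with GFP-expressing MRSA (mean MOI 6.8) for 1 h, treated with 30 µg/ml gentamicin for 15 min, then incubated overnight at 37°C with kinase inhibitors and 5 µg/ml gentamicin. Flow cytometry gave % GFP-positive cells, with cell count as viability. Hits were z-score ≤ -2 (infection) and ≥ -3 (count) versus DMSO.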

[3] = PKIS compound screen raw data, HeLa cell count
[4] = PKIS compound screen, HeLa cell count
[5] = PKIS compound screen, Yes/No call
[6] = PKIS compound screen, Yes/No call on z-scoreHeLa
[7] = PKIS compounds raw data, HeLa cell count
[8] = PKIS compound screen raw data, MRSA-infected HeLa cells
[9] = PKIS compound screen, MRSA-infected HeLa cells
[10] = PKIS compound screen, Yes/No call (effect without cell death)
[11] = PKIS compound screen, Yes/No call on z-scoreMRSA+
[12] = PKIS compounds raw data, MRSA-infected HeLa cells
[13] = compound screen, HeLa cell count
[14] = Yes/No: effect without cell death
[15] = compound screen, MRSA-infected HeLa cells

Row | SMILES | cell count rep 1 [1, 3] | cell count rep 2 [1, 3] | cell count rep 3 [1, 3] | cell count rep 1 [1, 7] | cell count rep 2 [1, 7] | cell count rep 3 [1, 7] | %GFP+ rep 1 [2, 8] | %GFP+ rep 2 [2, 8] | %GFP+ rep 3 [2, 8] | hit [2, 10] | %GFP+ rep 1 [2, 12] | %GFP+ rep 2 [2, 12] | %GFP+ rep 3 [2, 12] | cell death ([1]; Yes/No call from z-scoreHeLa) | z-scoreHeLa mean [1, 13] | z-scoreHeLa rep 1 [1, 13] | z-scoreHeLa rep 2 [1, 13] | z-scoreHeLa rep 3 [1, 13] | effect ([2]; Yes/No call from z-scoreMRSA+) | hit [2, 14] | further results
1 | Cc1cccc(Cn2ccn3c(=O)cc(N4CCOCC4)nc23)c1 [GSK2297542A] | 36714 | 30989 | 25952 | 6792 | 6500 | 7025 | 14.5% | 15.7% | 16.8% | No | 23.8% | 25.2% | 24.5% | – | – | – | – | – | – | – | z-scoreHeLa mean [1, 4]: 1.15; z-scoreHeLa rep 1 [1, 4]: 1.10; z-scoreHeLa rep 2 [1, 4]: 0.98; z-scoreHeLa rep 3 [1, 4]: 1.37; cell death [1, 5]: No; cell death [1, 6]: No; z-scoreHeLa mean ([1]; PKIS compound screen): 0.56; z-scoreHeLa rep 1 ([1]; PKIS compound screen): 0.45; z-scoreHeLa rep 2 ([1]; PKIS compound screen): 0.33; z-scoreHeLa rep 3 ([1]; PKIS compound screen): 0.91; z-scoreMRSA+ mean [2, 9]: -1.12; z-scoreMRSA+ rep 1 [2, 9]: -1.14; z-scoreMRSA+ rep 2 [2, 9]: -1.01; z-scoreMRSA+ rep 3 [2, 9]: -1.21; effect [2, 5]: No; effect [2, 11]: No; z-scoreMRSA+ mean ([2]; PKIS compound screen): -0.44; z-scoreMRSA+ rep 1 ([2]; PKIS compound screen): -0.63; z-scoreMRSA+ rep 2 ([2]; PKIS compound screen): -0.16; z-scoreMRSA+ rep 3 ([2]; PKIS compound screen): -0.51
2 | Cn1cc(-c2cnc(N)c3c(-c4ccc5c(c4)CCN5C(=O)Cc4ccccc4)csc23)cn1 [GSK2593074A] | – | – | – | 857 | 369 | 1620 | – | – | – | – | 24.8% | 21.4% | 19.2% | Yes | -3.02 | -3.54 | -2.95 | -2.56 | No | No | z-scoreMRSA+ mean [2, 15]: 2.45; z-scoreMRSA+ rep 1 [2, 15]: 3.72; z-scoreMRSA+ rep 2 [2, 15]: 2.64; z-scoreMRSA+ rep 3 [2, 15]: 0.98
3 | Cc1c2ccc(N(C)c3ccnc(Nc4cccc(S(N)(=O)=O)c4)n3)cc2nn1Cc1ccccc1 [GW787226A] | 1356 | 1496 | 1271 | – | – | – | 21.6% | 20.6% | 18.5% | – | – | – | – | No | -2.28 | -2.16 | -2.16 | -2.51 | No | No | z-scoreMRSA+ mean [2, 15]: -0.82; z-scoreMRSA+ rep 1 [2, 15]: -0.86; z-scoreMRSA+ rep 2 [2, 15]: -0.49; z-scoreMRSA+ rep 3 [2, 15]: -1.11
4 | CN(c1ccc(NC(=O)Nc2cccc(Cl)c2)cc1)c1ccnc(N)n1 [GW830707A] | 2862 | 2838 | 4346 | – | – | – | 21.9% | 21.1% | 22.8% | – | – | – | – | No | -0.92 | -1.07 | -1.13 | -0.56 | No | No | z-scoreMRSA+ mean [2, 15]: -0.32; z-scoreMRSA+ rep 1 [2, 15]: -0.79; z-scoreMRSA+ rep 2 [2, 15]: -0.37; z-scoreMRSA+ rep 3 [2, 15]: 0.18
5 | COc1cccc(-n2ncc3c(N/N=C/c4ccncc4)ncnc32)c1 [GW784752X] | – | – | – | 3928 | 3683 | 8225 | – | – | – | No | 11.8% | 11.6% | 12.3% | – | – | – | – | – | – | – | cell death [1, 5]: No; z-scoreHeLa mean ([1]; PKIS compound screen): -0.20; z-scoreHeLa rep 1 ([1]; PKIS compound screen): -0.77; z-scoreHeLa rep 2 ([1]; PKIS compound screen): -0.44; z-scoreHeLa rep 3 ([1]; PKIS compound screen): 0.60; effect [2, 5]: No; z-scoreMRSA+ mean ([2]; PKIS compound screen): -0.71; z-scoreMRSA+ rep 1 ([2]; PKIS compound screen): -0.44; z-scoreMRSA+ rep 2 ([2]; PKIS compound screen): -0.63; z-scoreMRSA+ rep 3 ([2]; PKIS compound screen): -1.06
6 | COc1cc2c(Nc3cccc(NC(=O)c4ccccc4)c3)ncnc2cc1OCCCN1CCOCC1 [GSK223810A] | 28720 | 24881 | 20680 | – | – | – | 19.8% | 21.2% | 22.6% | No | – | – | – | – | – | – | – | – | – | – | z-scoreHeLa mean [1, 4]: 0.00813; z-scoreHeLa rep 1 [1, 4]: -0.25; z-scoreHeLa rep 2 [1, 4]: -0.07; z-scoreHeLa rep 3 [1, 4]: 0.34; cell death [1, 6]: No; z-scoreMRSA+ mean [2, 9]: 0.38; z-scoreMRSA+ rep 1 [2, 9]: 0.27; z-scoreMRSA+ rep 2 [2, 9]: 0.49; z-scoreMRSA+ rep 3 [2, 9]: 0.37; effect [2, 11]: No
